From BigSolDB 2.1

Nc1n[nH]c(=S)s1
solubility (mole fraction)
Details	283.15 K	288.15 K	293.15 K	298.15 K	303.15 K	308.15 K	313.15 K	318.15 K	323.15 K
in acetone	0.0101	0.0107	0.0114	0.0121	0.0129	0.0135	0.0142	0.015	0.0158
in cyclohexanone	0.0325	0.0343	0.036	0.0378	0.0397	0.0415	0.0433	0.0449	0.0467
in ethanol	0.00402	0.00442	0.00486	0.00526	0.00578	0.00629	0.00684	0.00741	0.008
in ethyl acetate	0.00203	0.00222	0.00242	0.00263	0.0028	0.00301	0.00326	0.0035	0.00374
in isobutanol	0.00148	0.0017	0.00197	0.00225	0.00257	0.00289	0.00333	0.00376	0.0042
in isopropanol	0.00224	0.00259	0.00302	0.00351	0.00397	0.00447	0.00501	0.0057	0.0065
in methanol	0.00454	0.00505	0.00553	0.00617	0.00676	0.00737	0.00806	0.00882	0.00961
in methyl acetate	0.0022	0.00239	0.0026	0.00285	0.00308	0.00332	0.00361	0.00386	0.00411
in n-butanol	0.00216	0.00243	0.00284	0.00327	0.00372	0.00427	0.0048	0.00546	0.0061
in n-butyl acetate	0.00158	0.00172	0.00189	0.00205	0.00221	0.0024	0.0026	0.00283	0.00304
in n-propanol	0.0022	0.00259	0.00293	0.00341	0.00387	0.0043	0.00489	0.00561	0.00629
in n-propyl acetate	0.00183	0.00197	0.00212	0.00228	0.00243	0.00259	0.00278	0.00295	0.00316
in sec-butanol	0.00247	0.0029	0.00337	0.00397	0.00451	0.0051	0.00584	0.00667	0.00768
